In the NIST ThermoML archive (doi:10.1016/j.fluid.2015.07.030):

Experiment: xn = mol fraction of the nth substance listed
Settings: 95.99 kPa, Liquid, Vibrating tube method

OCCOCCOCCO [triethylene glycol] + O
mass density [kg/m3]
Settings	293.15 K	298.15 K	303.15 K	308.15 K	313.15 K
x2 = 0	1123.12	1119.01	1114.79	1110.81	1106.7
x2 = 0.1056	1122.61	1118.31	1114.09	1109.99	1105.84
x2 = 0.2069	1121.88	1117.53	1113.37	1109.16	1105.25
x2 = 0.3103	1120.77	1116.52	1112.38	1108.31	1104.34
x2 = 0.4843	1118.69	1114.57	1110.18	1106.08	1101.98
x2 = 0.5016	1118.43	1114.12	1109.85	1105.68	1101.69
x2 = 0.5952	1116.29	1111.83	1107.57	1103.19	1099.18
x2 = 0.6015	1116.07	1111.61	1107.35	1102.97	1098.96
x2 = 0.6787	1112.29	1107.99	1103.97	1099.53	1095.62
x2 = 0.7835	1102.7	1098.52	1094.74	1090.2	1086.93
x2 = 0.8183	1096.95	1092.99	1089.46	1084.98	1081.89
x2 = 0.8472	1090.49	1086.81	1083.32	1078.84	1076.08
x2 = 0.8719	1083.52	1080.07	1076.78	1072.37	1069.93
x2 = 0.8925	1076.28	1073.04	1069.94	1065.64	1063.47
x2 = 0.9106	1068.64	1065.62	1062.7	1058.54	1056.6
x2 = 0.9254	1061.24	1058.41	1055.66	1051.66	1049.89
x2 = 0.9303	1058.23	1055.05	1052.47	1049.13	1047.41
x2 = 0.939	1053.42	1050.36	1048.08	1044.27	1042.63
x2 = 0.951	1045.41	1042.85	1040.42	1036.82	1035.27
x2 = 0.9599	1037.69	1036.35	1034.04	1030.61	1029.11
x2 = 0.9707	1029.87	1027.7	1025.28	1022.68	1019.99
x2 = 0.979	1021.78	1019.75	1017.72	1014.8	1013.28
x2 = 0.9866	1013.57	1011.61	1009.56	1007.37	1005.16
x2 = 0.9936	1005.7	1003.82	1001.99	999.97	997.49
